From ChEMBL document CHEMBL3044922, “N 1-{4-[(10S)-Dihydroartemisinin-10-oxyl]}phenylmethylene-N 2-(2-methylquinoline-4-yl)hydrazine derivatives as antiplasmodial falcipain-2 inhibitors” (Med Chem Res, 2012)
pIC50: −log10 of the molar value.

What was measured:
[1] = target: T1, Falcipain 2 (Plasmodium falciparum, UniProt Q9N6S8); assay: Inhibition of Plasmodium falciparum recombinant falcipain 2 expressed in Escherichia coli using Z-Leu-Arg-AMC as substrate incubated for 30 min prior to substrate addition measured for 30 min by fluorometric analysis
T1 sequence (Q9N6S8 whole entry): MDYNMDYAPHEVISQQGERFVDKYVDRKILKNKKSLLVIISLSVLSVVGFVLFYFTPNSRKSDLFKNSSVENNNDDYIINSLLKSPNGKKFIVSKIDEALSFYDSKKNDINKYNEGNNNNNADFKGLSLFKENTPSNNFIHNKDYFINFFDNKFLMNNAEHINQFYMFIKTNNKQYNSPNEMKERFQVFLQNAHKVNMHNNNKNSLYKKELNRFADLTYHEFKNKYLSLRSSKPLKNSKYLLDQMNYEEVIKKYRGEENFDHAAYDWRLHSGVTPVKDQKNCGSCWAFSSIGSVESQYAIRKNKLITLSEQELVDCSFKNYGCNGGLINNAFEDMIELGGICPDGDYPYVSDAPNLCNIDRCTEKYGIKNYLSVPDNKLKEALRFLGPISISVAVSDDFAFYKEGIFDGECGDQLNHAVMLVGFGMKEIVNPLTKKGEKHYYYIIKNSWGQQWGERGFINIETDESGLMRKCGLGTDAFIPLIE

[2] = target: T2, Falcipain 2 (Plasmodium falciparum) (UniProt Q9N6S8); assay: Inhibition of Plasmodium falciparum recombinant falcipain 2 expressed in Escherichia coli using Z-Leu-Arg-AMC as substrate at 10 uM incubated for 30 min prior to substrate addition measured for 30 min by fluorometric analysis
T2 sequence (whole entry): T1 sequence (Q9N6S8 whole entry)

| SMILES | pIC50 [1] | inhibition [2] |
| --- | --- | --- |
| Cc1cc(N/N=C/c2ccc(O[C@H]3O[C@@H]4O[C@@]5(C)CC[C@H]6[C@H](C)CC[C@@H]([C@H]3C)[C@@]46OO5)cc2)c2ccc(C)c(C)c2n1 | 6.08 | 79.4% |
| COc1ccc2nc(C)cc(N/N=C/c3ccc(O[C@H]4O[C@@H]5O[C@@]6(C)CC[C@H]7[C@H](C)CC[C@@H]([C@H]4C)[C@@]57OO6)cc3)c2c1 | 6.54 | 93.7% |
| Cc1cc(N/N=C/c2ccc(O[C@H]3O[C@@H]4O[C@@]5(C)CC[C@H]6[C@H](C)CC[C@@H]([C@H]3C)[C@@]46OO5)cc2)c2cc(Cl)ccc2n1 | 6.82 | 88.2% |
| Cc1cc(N/N=C/c2ccc(O[C@H]3O[C@@H]4O[C@@]5(C)CC[C@H]6[C@H](C)CC[C@@H]([C@H]3C)[C@@]46OO5)cc2)c2cccc(C)c2n1 | 5.64 | 84.3% |
| Cc1cc(N/N=C/c2ccc(O[C@H]3O[C@@H]4O[C@@]5(C)CC[C@H]6[C@H](C)CC[C@@H]([C@H]3C)[C@@]46OO5)cc2)c2c(Cl)ccc(C)c2n1 | 6.41 | 79.4% |
| Cc1cc(N/N=C/c2ccc(O[C@H]3O[C@@H]4O[C@@]5(C)CC[C@H]6[C@H](C)CC[C@@H]([C@H]3C)[C@@]46OO5)cc2)c2cccc(F)c2n1 | 6.55 | 84.7% |
| Cc1cc(N/N=C/c2ccc(O[C@H]3O[C@@H]4O[C@@]5(C)CC[C@H]6[C@H](C)CC[C@@H]([C@H]3C)[C@@]46OO5)cc2)c2ccc(Cl)cc2n1 | 6.77 | 88.4% |
| Cc1cc(N/N=C/c2ccc(O[C@H]3O[C@@H]4O[C@@]5(C)CC[C@H]6[C@H](C)CC[C@@H]([C@H]3C)[C@@]46OO5)cc2)c2ccc(Cl)c(C)c2n1 | 6.68 | 82.6% |
| CCc1cccc2c(N/N=C/c3ccc(O[C@H]4O[C@@H]5O[C@@]6(C)CC[C@H]7[C@H](C)CC[C@@H]([C@H]4C)[C@@]57OO6)cc3)cc(C)nc12 | 6.28 | 85.1% |
| Cc1cc(N/N=C/c2ccc(O[C@H]3O[C@@H]4O[C@@]5(C)CC[C@H]6[C@H](C)CC[C@@H]([C@H]3C)[C@@]46OO5)cc2)c2cc(Br)ccc2n1 | 6.59 | 89.8% |
| Cc1cc(N/N=C/c2ccc(O[C@H]3O[C@@H]4O[C@@]5(C)CC[C@H]6[C@H](C)CC[C@@H]([C@H]3C)[C@@]46OO5)cc2)c2cc(F)ccc2n1 | 6.17 | 88.6% |
| Cc1ccc2nc(C)cc(N/N=C/c3ccc(O[C@H]4O[C@@H]5O[C@@]6(C)CC[C@H]7[C@H](C)CC[C@@H]([C@H]4C)[C@@]57OO6)cc3)c2c1 | 6.11 | 87.2% |
| Cc1cc(N/N=C/c2ccc(O[C@H]3O[C@@H]4O[C@@]5(C)CC[C@H]6[C@H](C)CC[C@@H]([C@H]3C)[C@@]46OO5)cc2)c2cccc(Br)c2n1 | 6.08 | 94.1% |
| CC(C)C[C@H](NC(=O)[C@H]1O[C@@H]1C(=O)O)C(=O)NCCCCN=C(N)N [E-64] | 7.70 | 92% |
| Cc1cc(N/N=C/c2ccc(O[C@H]3O[C@@H]4O[C@@]5(C)CC[C@H]6[C@H](C)CC[C@@H]([C@H]3C)[C@@]46OO5)cc2)c2ccccc2n1 | 6.05 | 94.1% |
